# Entries after “also recorded” stand apart in the source; their conditions may differ.
# System: Differentiated-THP-1
# Test: Vesicle formation in the presence of fatty acids (Nile Red staining)
# Type: cell-based
# Details: 200 μM albumin-coupled fatty acid, 24 hours, differentiated macrophage permanent cell line
# Description: Fatty acids can be prepared according to Spector A A and Hoak J C, (1969 Anal. Biochem, 32: 297-302): Breifly, 100 μmol of fatty acid (12:0, 16:0, 18:0 and 20:0) can be dissolved in 7.5 ml of hexane containing 400 mg of Celite (Sigma). The solvent is then evaporated under nitrogen by continuous magnetic stirring. The fatty acid-coated particles are then mixed with fatty acid free albumin, in serum free medium for 1 hour at room temperature under nitrogen. After centrifugation, the supernatnts containing fatty acid coupled to albumin is conserved.
# Vesicle formation in the presence of fatty acids was induced as follows: briefly, THP1 differentiation was induced in a medium supplemented with 10^−7 M of phorbol 12-myristate-13-acetate (Sigma) for 24 hours at 37° C., 5% CO2. Differentiated-THP-1 was incubated with or without 200 μM of fatty acid-BSA complexes for 24 hours at 37° C., 5% CO2. After washing and paraformaldhehyde fixation, cells were stained with Nile Red (1 μg/ml) and Hoechst 33342 (10 μg/ml) solution for 10 minutes at RT. After washing, images of cells staining with Nile Red and Hoechst 33342 were automatized captured using a fluorescence microscope controlled by MetaMorph Software (Universal Imaging) and coupled with a CCD camera. After images analysis, results were expressed as the sum of Nile red intensity per cells number.
smiles,measurement,value
CCCCCCCCCCCCCCCCCC(=O)O [stearic acid],induction of lipid vesicles / foam cell formation (FIG. 9),Formation of foam cells; also recorded: induction of lipid vesicles
